Patent US10743543B2, “Botanical disinfection composition, disinfectant and preparation method thereof” (priority 2016, dated 2020)

What was measured:
[1] = system: pathogenic bacteria; details: general statement on antibacterial properties; cited from earlier work
[2] = system: Escherichia coli; experiment: Time needed to meet disinfection requirements, Escherichia coli; assay type: cell-based; details: concentration: ethanol 70%, benzalkonium bromide 1:1000, 1210 250 ppm, Embodiment 11 stock
[3] = system: Staphylococcus aureus; experiment: Time needed to meet disinfection requirements, Staphylococcus aureus; assay type: cell-based; details: concentration: ethanol 70%, benzalkonium bromide 1:1000, 1210 250 ppm, Embodiment 11 stock
[4] = system: Pseudomonas auerginosa; experiment: Time needed to meet disinfection requirements, Pseudomonas aeruginosa; assay type: cell-based; details: concentration: ethanol 70%, 1210 500 ppm, Embodiment 11 stock
[5] = system: Mycobacterium tuberculosis; details: concentration: ethanol 70%
[6] = system: Candida albicans; experiment: Time needed to meet disinfection requirements, Candida albicans; assay type: cell-based; details: concentration: ethanol 70%, iodophor 40 mg/L, Embodiment 11 stock

Compound | bactericidal concentration [1] [mol/L] | Time needed for meeting disinfection requirements [2] | Time needed for meeting disinfection requirements [3] [min] | Time needed for meeting disinfection requirements [4] [min] | Time needed for meeting disinfection requirements [5] [min] | Time needed for meeting disinfection requirements [6] [min]
O=C(O)CCCCCCCC(=O)O [Azelaic acid, azelaic acid] | 1 |  |  |  |  | 
CCO [Ethanol] |  | 0.5. min | 5 | 1 | 5 | 1
Benzalkonium bromide |  | 10 min | 5 |  |  | 
